SMILES strings stand for the structures.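 1) Cells in 96-well plates. 2) Compound, 48 h, 5 concentrations. 3) Linear interpolation between surrounding doses. 4) Unreached endpoint = highest concentration. GI50 is the concentration that inhibits growth by half. TGI denotes the concentration required for complete inhibition of growth.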

One test relates to OVCAR-3 ovarian. Description: DTP human tumour cell line panel, 48 h.
`CO[C@H]1/C=C(/C)CCC[C@H](C)[C@H](O)[C@@H](C)C(=O)C(C)(C)[C@@H](O)CC(=O)O[C@@H]1/C(C)=C/c1csc(C)n1`: the 50% growth inhibitory concentration (GI50) (as a rule, the concentration at which growth is held to half of that of the control) was under 0.0161 µM and the TGI (commonly the concentration giving total growth inhibition) was 0.111 µM.

`CCC1(CC)C(=O)NN(C(=O)c2ccccc2)C1=O` showed a TGI of over 100 µM.

In turn, `CC(=O)Nc1nc(C#N)[nH]c1C#N` displayed a TGI of over 100 µM.

Turning to `CS(=O)c1ncc2c(n1)-c1ccccc1OC2` (stereo not drawn), the TGI was over 100 µM.

`CN(C)c1ccc(C(=N/N=C2\C(=O)Nc3ccccc32)c2ccc(N(C)C)cc2)cc1` displayed a concentration for total growth inhibition (TGI) of 3.63 µM.

Take `COc1ccc(-c2nc(SCC(=O)N/N=C/c3ccc(N(C)C)cc3)[nH]c2-c2ccc(OC)cc2)cc1`: the TGI is over 100 µM.

As for `CC1=C[C@@H]2Cc3nc4cc(Cl)ccc4c(N)c3[C@H](C1)C2`, the TGI is 24.2 µM.

`c1c[nH]c(-c2ccc(-c3ccc[nH]3)c3nsnc23)c1` returned a concentration for total growth inhibition (TGI) of 95.4 µM.

The compound `N#Cc1c(-c2ccccc2)/c(=C\Nc2ccc(F)cc2)c(=O)n2c1nc1ccccc12` gave a TGI of 48.2 µM. Compared with the last compound, the TGI is about 2-fold lower.

`CCN(CC)CCn1c(=O)c2cccnc2n2c3c(=O)n(C)c(=O)n(C)c3nc12`: the TGI is over 100 µM.

Regarding `CCOC(=O)C1=C(C)C2C=C(c3cccs3)CC(c3ccc(Cl)cc3)=C2OC1=O` (stereo not drawn), the TGI is over 100 µM.

`COc1ccc2c(c1)OCC1Cc3ccccc3OC21` (stereo not drawn) came in with a TGI of over 100 µM.

`Cc1cc2c3c(nc4ccccc42)C(=O)c2ccccc2-c3n1` registered a TGI of 0.906 µM. This counts as sub-micromolar.

As to `CCOC(=O)c1nc2c(nc1C(=O)OCC)C(=O)c1ccccc1C2=O`, the TGI was found to be 2.81 µM.

For the compound `CCOC(=O)c1c(C)nc2c3ccccc3c(C#N)c(C)n12`, the TGI is over 100 µM.

Compound `Cc1ccc(C(=C2Sc3ccccc3S2)C(=C2Sc3ccccc3S2)c2ccc(C)s2)s1` gave a total growth inhibition concentration (TGI) of over 100 µM.

Take `CCCCC(C(=O)NCCNC(=O)CCC(=O)N(C)O)C(=O)NCCNC(=O)CCC(=O)N(C)O`: the concentration for total growth inhibition (TGI) was over 100 µM.

Turning to `C=CCSc1nnc2cc(CN3CCCC3)c(-c3ccc(Cl)cc3)nn12`, the TGI is 36 µM.

`COc1cccc2c1OC1(C=C2)Oc2ccccc2C(=O)N1C` (stereo not drawn) showed a concentration for total growth inhibition (TGI) of over 100 µM.

The compound `CCOC(=O)c1cn2c(nc1=O)N[C@H]1CCCC[C@@H]12` displayed a TGI of over 100 µM.

`COP(=O)(/C=C/c1cc(C(=O)OCc2ccccc2)n(S(=O)(=O)c2ccccc2)c1)OC`: the TGI was over 100 µM.

On to `COc1ccc(NC(=O)CC(=O)N2N=C(N3c4ccccc4Sc4ccccc43)CC2c2ccccc2)cc1` (stereo not drawn), for which the TGI was over 100 µM.

Compound `O=C(O)c1ccccc1CC1Cc2ccccc2C1=O` (stereo not drawn) returned a concentration for total growth inhibition (TGI) of over 100 µM.

The subject of another test is PC-3 prostate. The test can be described thus: DTP human tumour cell line panel, 48 h.
With `CO[C@H]1/C=C(/C)CCC[C@H](C)[C@H](O)[C@@H](C)C(=O)C(C)(C)[C@@H](O)CC(=O)O[C@@H]1/C(C)=C/c1csc(C)n1`, the GI50 is 0.0361 µM and the TGI is over 100 µM.

Compound `CCC1(CC)C(=O)NN(C(=O)c2ccccc2)C1=O` came in with a concentration for total growth inhibition (TGI) of over 100 µM.

As to `CC(=O)Nc1nc(C#N)[nH]c1C#N`, the TGI is over 100 µM.

`CS(=O)c1ncc2c(n1)-c1ccccc1OC2` (stereo not drawn) had a concentration for total growth inhibition (TGI) of over 100 µM.

The compound `CN(C)c1ccc(C(=N/N=C2\C(=O)Nc3ccccc32)c2ccc(N(C)C)cc2)cc1` had a TGI of 40 µM.

In turn, `COc1ccc(-c2nc(SCC(=O)N/N=C/c3ccc(N(C)C)cc3)[nH]c2-c2ccc(OC)cc2)cc1` showed a TGI of over 100 µM.

Turning to `CC1=C[C@@H]2Cc3nc4cc(Cl)ccc4c(N)c3[C@H](C1)C2`, the TGI stood at 26.9 µM.

In turn, `c1c[nH]c(-c2ccc(-c3ccc[nH]3)c3nsnc23)c1` registered a concentration for total growth inhibition (TGI) of over 100 µM.

Compound `N#Cc1c(-c2ccccc2)/c(=C\Nc2ccc(F)cc2)c(=O)n2c1nc1ccccc12` displayed a concentration for total growth inhibition (TGI) of over 100 µM.

For `CCN(CC)CCn1c(=O)c2cccnc2n2c3c(=O)n(C)c(=O)n(C)c3nc12`, the TGI is over 100 µM.

The compound `CCOC(=O)C1=C(C)C2C=C(c3cccs3)CC(c3ccc(Cl)cc3)=C2OC1=O` (stereo not drawn) registered a concentration for total growth inhibition (TGI) of over 100 µM.

Regarding `COc1ccc2c(c1)OCC1Cc3ccccc3OC21` (stereo not drawn), the TGI was over 100 µM.

`Cc1cc2c3c(nc4ccccc42)C(=O)c2ccccc2-c3n1` displayed a TGI of 80.9 µM.

In turn, `CCOC(=O)c1nc2c(nc1C(=O)OCC)C(=O)c1ccccc1C2=O` had a TGI of 11.2 µM.

With `CCOC(=O)c1c(C)nc2c3ccccc3c(C#N)c(C)n12`, the total growth inhibition concentration (TGI) is over 100 µM.

As to `Cc1ccc(C(=C2Sc3ccccc3S2)C(=C2Sc3ccccc3S2)c2ccc(C)s2)s1`, the TGI is over 100 µM.

`CCCCC(C(=O)NCCNC(=O)CCC(=O)N(C)O)C(=O)NCCNC(=O)CCC(=O)N(C)O` had a TGI of over 100 µM.

`C=CCSc1nnc2cc(CN3CCCC3)c(-c3ccc(Cl)cc3)nn12` registered a total growth inhibition concentration (TGI) of 35.3 µM.

Consider `COc1cccc2c1OC1(C=C2)Oc2ccccc2C(=O)N1C` (stereo not drawn), for which the concentration for total growth inhibition (TGI) is over 100 µM.

`CCOC(=O)c1cn2c(nc1=O)N[C@H]1CCCC[C@@H]12`: the TGI is over 100 µM.

For `COP(=O)(/C=C/c1cc(C(=O)OCc2ccccc2)n(S(=O)(=O)c2ccccc2)c1)OC`, the concentration for total growth inhibition (TGI) is over 100 µM.

As to `COc1ccc(NC(=O)CC(=O)N2N=C(N3c4ccccc4Sc4ccccc43)CC2c2ccccc2)cc1` (stereo not drawn), the total growth inhibition concentration (TGI) is over 100 µM.

The compound `O=C(O)c1ccccc1CC1Cc2ccccc2C1=O` (stereo not drawn) had a total growth inhibition concentration (TGI) of over 100 µM.

For the origin of these results see PubChem BioAssay (NCI).
